Test results published in article PMC10403075, “Short hydrocarbon stapled ApoC2-mimetic peptides activate lipoprotein lipase and lower plasma triglycerides in mice” (Frontiers in Cardiovascular Medicine, 2023).
Positions of bridges follow the written chain, without caps; N, C: chain ends. Non-standard residues stand in square brackets, D forms with d. Residues, ends and D or L forms follow the SMILES beside them. R8 = C=CCCCCCC[C@@](C)(N)C(=O)O; S5 = C=CCCC[C@](C)(N)C(=O)O

How the values were obtained:
LPL from bovine milk = target: T1, LPL from bovine milk (Bos taurus, UniProt P11151); assay: In vitro LPL activity assay (NEFA generation, ApoC2-deficient plasma substrate); assay type: biochemical; conditions: 0-2 µM peptide, ApoC2-deficient plasma substrate, NEFA read-out, triplicates; for in vitro LPL activation, dose response (result in words): bovine milk LPL, 37°C 1 h; for EC50: 0.83 nM bovine milk LPL, 30 min on ice then 37°C 1 h, read-out: EC50 for stimulating lipolysis (LPL activation)
T1 construct: LPL from bovine milk (Sigma-Aldrich); purchased Sigma-Aldrich; host or cells: bovine milk (natural source)
T1 sequence (P11151 29-478): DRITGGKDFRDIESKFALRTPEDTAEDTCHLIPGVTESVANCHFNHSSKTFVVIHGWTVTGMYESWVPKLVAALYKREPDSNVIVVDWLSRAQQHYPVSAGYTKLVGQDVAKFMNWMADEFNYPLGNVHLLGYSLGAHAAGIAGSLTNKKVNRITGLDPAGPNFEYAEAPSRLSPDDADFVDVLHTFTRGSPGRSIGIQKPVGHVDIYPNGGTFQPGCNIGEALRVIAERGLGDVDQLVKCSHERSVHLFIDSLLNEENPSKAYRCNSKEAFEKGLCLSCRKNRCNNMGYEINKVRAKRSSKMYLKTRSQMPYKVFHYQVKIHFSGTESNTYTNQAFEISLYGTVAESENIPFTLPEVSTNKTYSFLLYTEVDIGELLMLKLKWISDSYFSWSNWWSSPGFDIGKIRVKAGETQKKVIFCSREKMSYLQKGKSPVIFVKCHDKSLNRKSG
Description: LPL activity was determined by measuring the generation of non-esterified fatty acids (NEFA). In a 96-well plate, 0–2 µM of an ApoC2 mimetic peptide, 0.83 nM of LPL from bovine milk (Sigma-Aldrich), ApoC2-deficient ethylenediaminetetraacetic acid (EDTA)-plasma (diluted with PBS to a final TG concentration of 0.67 mg/dl), 2 IU/ml heparin, 0.2% fatty acids free bovine serum albumin (BSA) (ICN Biomedicals), and PBS (Life Technologies) were combined in a final reaction volume of 50 μl. The reaction mixture was pre-incubated on ice for 30 min and incubated at 37°C for 1 h. NEFA were measured with a coupled enzyme reaction (Wako Diagnostics) in a Synergy H1 microplate reader (BioTek, USA).

[1] = DMPC vesicle clearance (solubilization) assay; assay type: physicochemical; conditions: peptide 0-100 µM in 20 mM TRIS pH 8.2, DMPC vesicles 0.5 mg/ml in PBS, absorbance 660 nm, 1 h, 24°C
Description: Dimyristoyl Phosphatidyl Choline (DMPC) (Avanti 850345C) vesicles were made by sonication (0.5 mg/ml) in phosphate buffer saline (PBS). Peptides (0, 25, 50 and 100 µM) in 20 mM TRIS, pH 8.2 were added to DMPC vesicles (0.5 mg/ml) prepared by sonication in PBS and turbidity was monitored in a Victor^3 plate reader (Perkin Elmer, USA) by monitoring absorbance at 660 nm for 1 h at 24°C. Samples were shaken at 300 RPM. Absorbance over time was plotted and areas-under-the-curve (AOC) were calculated. PBS was used as a negative control sample and Triton X-100 at a final concentration of 1% (w/v) was used as positive control.

trypsin = assay: Peptide proteolysis resistance, trypsin; assay type: in vitro ADME; conditions: peptide 0.1 mM, 10 ug/ml trypsin, 20 mM ammonium bicarbonate pH 8.2, 37°C, MALDI-TOF with internal standards, first time point 3 h, triplicates
Description: (§1) Peptides (0.1 mM) were incubated at 37°C in 20 mM ammonium bicarbonate buffer at pH 8.2, with 10 ug/ml trypsin or […] Proteinase K. To test resistance to Pepsin, peptides (0.1 mM) were incubated with Pepsin (3 mg/ml) in 0.02M acetate buffer (pH 2). The amount of intact peptide was monitored over time by Matrix-assisted laser desorption/ionization time-of-flight (MALDI-TOF) on a Bruker Autoflex III instrument (Bruker Optics, Inc., USA). Internal standards (Bombesin, ACTH (1–17), ACTH (18–39) and Insulin) were used to quantify the relative amount of peptide in each sample.

Apoc2^h/h mice = assay: Plasma lipids in ApoC2-hypomorphic mice after peptide injection; assay type: in vivo, mouse; conditions: single IP 1 umole/kg, n = 5
Description: ApoC2–hypomorphic mice (Apoc2^h/h) ([25]) and human ApoC3-transgenic (hAPOC3-tg) mice ([26]) were fed a regular rodent chow diet (NIH-31 chow diet: Zeigler Brothers Inc.). Peptides dissolved in 20 mM TRIS (pH 8.2) or vehicle control were injected intraperitoneally or intravenously at the indicated concentrations. Blood samples were collected from the retro-orbital sinus with a heparinized capillary tube. Whole blood was centrifuged at 1,000 g for 20 min at 4°C to obtain plasma. All animal procedures were approved by the National Heart, Lung, and Blood Institute Animal Care and Use Committee (protocol #H-0050).

Pepsin = assay: Peptide proteolysis resistance, pepsin; assay type: in vitro ADME; conditions: peptide 0.1 mM, pepsin 3 mg/ml, 0.02M acetate buffer pH 2, 1 h, MALDI-TOF with internal standards, triplicates
Description: as §1

Proteinase K = Proteinase K (Parengyodontium album, UniProt P06873); assay type: in vitro ADME; conditions: peptide 0.1 mM, 16 ug/kg Proteinase K, 20 mM ammonium bicarbonate pH 8.2, 37°C, MALDI-TOF with internal standards, first time point 3 h, triplicates
Description: as §1

[2] = Circular dichroism spectroscopy; assay type: physicochemical; conditions: CD 190-250 nm
Description: Circular dichroism (CD) spectra were acquired on a Chirascan Q100 spectrometer. CD spectra were recorded in the190–250 nm range, using a 0.1 cm quartz cell and analyzed with Bettsele® on-line software ([24]).

Sequence of Proteinase K (P06873 106-384): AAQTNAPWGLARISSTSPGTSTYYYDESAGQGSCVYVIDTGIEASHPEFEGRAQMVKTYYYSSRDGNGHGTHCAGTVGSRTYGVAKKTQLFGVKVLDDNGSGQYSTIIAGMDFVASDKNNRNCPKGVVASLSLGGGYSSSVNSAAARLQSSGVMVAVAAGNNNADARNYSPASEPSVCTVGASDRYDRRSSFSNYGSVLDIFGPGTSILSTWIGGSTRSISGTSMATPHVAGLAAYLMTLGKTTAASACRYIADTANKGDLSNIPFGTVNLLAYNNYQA

In the case of `CC[C@H](C)[C@@H]1NC(=O)CNC(=O)[C@H]([C@@H](C)O)NC(=O)[C@H](Cc2ccc(O)cc2)NC(=O)[C@H]([C@@H](C)O)NC(=O)[C@](C)(NC(=O)[C@H](CCSC)NC(=O)[C@H](C)N)CCCCCCC=CCCC[C@@](C)(C(=O)N[C@@H](CC(=O)O)C(=O)N[C@@H](CCC(N)=O)C(=O)N[C@H](C(=O)N[C@@H](CC(C)C)C(=O)N[C@@H](CO)C(=O)N[C@H](C(=O)N[C@@H](CC(C)C)C(=O)N[C@@H](CCCCN)C(=O)NCC(=O)N[C@@H](CCC(=O)O)C(=O)N[C@@H](CCC(=O)O)C(=O)O)C(C)C)C(C)C)NC(=O)[C@H](Cc2ccccc2)NC1=O` [P6] (H-AM[R8]TYTGIF[S5]DQVLSVLKGEE-OH; staple 3-10 (inferred); N-terminus and C-terminus assumed), the “in vitro LPL activation, dose response (result in words)” value (LPL from bovine milk) is reported as “just as active”.
In the case of `CC[C@H](C)[C@H](NC(=O)CNC(=O)[C@]1(C)CCCC=CCCCCCC[C@@](C)(NC(=O)[C@H](CO)NC(=O)[C@H](CCCCN)NC(=O)[C@H](CO)NC(=O)[C@H](Cc2ccc(O)cc2)NC(=O)[C@H](CC(C)C)NC(=O)[C@H](CC(=O)O)NC(=O)[C@H](CCCNC(=N)N)NC(=O)[C@H](CC(C)C)NC(=O)[C@H](CCCCN)NC(=O)[C@@H](N)CCC(=O)O)C(=O)N[C@@H](C)C(=O)N[C@@H](C)C(=O)N[C@@H](CCSC)C(=O)N[C@@H](CO)C(=O)N[C@@H]([C@@H](C)O)C(=O)N[C@@H](Cc2ccc(O)cc2)C(=O)N1)C(=O)N[C@@H](Cc1ccccc1)C(=O)N[C@H](C(=O)N[C@@H](CC(=O)O)C(=O)N[C@@H](CCC(N)=O)C(=O)N[C@H](C(=O)N[C@@H](CC(C)C)C(=O)N[C@@H](CO)C(=O)N[C@H](C(=O)N[C@@H](CC(C)C)C(=O)N[C@@H](CCCCN)C(=O)NCC(=O)N[C@@H](CCC(=O)O)C(=O)N[C@@H](CCC(=O)O)C(=O)O)C(C)C)C(C)C)[C@@H](C)O` [P3] (H-EKLRDLYSKS[R8]AAMSTY[S5]GIFTDQVLSVLKGEE-OH; staple 11-18), the EC50 (LPL from bovine milk) is reported as 25 to 33 nM.
Compound `CC[C@H](C)[C@@H]1NC(=O)CNC(=O)[C@H]([C@@H](C)O)NC(=O)[C@H](Cc2ccc(O)cc2)NC(=O)[C@H]([C@@H](C)O)NC(=O)[C@](C)(NC(=O)[C@H](CCSC)NC(=O)[C@H](C)NC(=O)[C@H](C)NC(=O)[C@@H](NC(=O)[C@H](CO)NC(=O)[C@H](CCCCN)NC(=O)[C@H](CO)NC(=O)[C@H](Cc2ccc(O)cc2)NC(=O)[C@H](CC(C)C)NC(=O)[C@H](CC(=O)O)NC(=O)[C@H](CCCNC(=N)N)NC(=O)[C@H](CC(C)C)NC(=O)[C@H](CCCCN)NC(=O)[C@@H](N)CCC(=O)O)[C@@H](C)O)CCCCCCC=CCCC[C@@](C)(C(=O)N[C@@H](CC(=O)O)C(=O)N[C@@H](CCC(N)=O)C(=O)N[C@H](C(=O)N[C@@H](CC(C)C)C(=O)N[C@@H](CO)C(=O)N[C@H](C(=O)N[C@@H](CC(C)C)C(=O)N[C@@H](CCCCN)C(=O)NCC(=O)N[C@@H](CCC(=O)O)C(=O)N[C@@H](CCC(=O)O)C(=O)O)C(C)C)C(C)C)NC(=O)[C@H](Cc2ccccc2)NC1=O` [P5] (H-EKLRDLYSKSTAAM[R8]TYTGIF[S5]DQVLSVLKGEE-OH; staple 15-22) has an EC50 (LPL from bovine milk) of 25 to 33 nM.
For `CC[C@H](C)[C@H](NC(=O)CNC(=O)[C@@H](NC(=O)[C@H](Cc1ccc(O)cc1)NC(=O)[C@@H](NC(=O)[C@H](CO)NC(=O)[C@H](CCSC)NC(=O)[C@H](C)N)[C@@H](C)O)[C@@H](C)O)C(=O)N[C@@H](Cc1ccccc1)C(=O)N[C@H](C(=O)N[C@@H](CC(=O)O)C(=O)N[C@@H](CCC(N)=O)C(=O)N[C@H](C(=O)N[C@@H](CC(C)C)C(=O)N[C@@H](CO)C(=O)N[C@H](C(=O)N[C@@H](CC(C)C)C(=O)N[C@@H](CCCCN)C(=O)NCC(=O)N[C@@H](CCC(=O)O)C(=O)N[C@@H](CCC(=O)O)C(=O)O)C(C)C)C(C)C)[C@@H](C)O` [P8, reference compound] (H-AMSTYTGIFTDQVLSVLKGEE-OH), the DMPC vesicle solubilization [1] was “inactive”.
With `CCCCCCCC(=O)NC(C)(C)C(=O)N[C@@H](CCCC)C(=O)N[C@]1(C)CCCCCCC=CCCCC2(CCCC=CCCCCCC[C@@](C)(C(=O)N[C@@H](CCCCN)C(=O)N(C)CC(=O)N[C@H](CCC(=O)O)C(=O)N[C@H](CCC(=O)O)C(=O)O)NC(=O)[C@H](C(C)C)NC(=O)[C@H](CO)NC(=O)[C@H](CC(C)C)NC(=O)[C@H](C(C)C)NC(=O)[C@H](CCC(N)=O)NC(=O)[C@H](CC(=O)O)NC2=O)NC(=O)[C@H](Cc2ccccc2)NC(=O)[C@H]([C@@H](C)CC)NC(=O)CNC(=O)[C@H]([C@@H](C)O)NC(=O)[C@H](Cc2ccc(O)cc2)NC(=O)[C@H]([C@@H](C)O)NC1=O` (some centres unmarked) [SP2a] the “intact full-length peptide after trypsin incubation” value (trypsin) was “highly resistant to proteolysis”, the “plasma triglycerides, 1-hour time point” value (Apoc2^h/h mice; 1 h, compared with D6PV) was “possibly less effective” and the “plasma triglycerides, 3-hour time point” value (Apoc2^h/h mice; 3 h) was “lowered plasma triglycerides like D6PV”. The “intact full-length peptide after pepsin incubation” value (Pepsin) was “highly resistant to proteolysis”, the “intact full-length peptide after Proteinase K incubation” value (Proteinase K) was “highly resistant to proteolysis” and the “secondary structure by CD (result in words)” value [2] was “highly helical”. For the same compound, the “in vitro LPL activation, dose response (result in words)” value (LPL from bovine milk) was “more potent than SP1 and D6PV”.
